Test results taken from BindingDB's records for doi:10.7270/Q22J698B (NMMLSC, 2010).

Molecular target: Cell division control protein 42 homolog (Homo sapiens, UniProt P60953)
Test: inhibition of fluorescent GTP binding to constitutively active Cdc42 – biochemical, multiplex bead flow cytometry, Bodipy-FL-GTP, dose response (AID 1333)

Chain of Cell division control protein 42 homolog (P60953 whole entry): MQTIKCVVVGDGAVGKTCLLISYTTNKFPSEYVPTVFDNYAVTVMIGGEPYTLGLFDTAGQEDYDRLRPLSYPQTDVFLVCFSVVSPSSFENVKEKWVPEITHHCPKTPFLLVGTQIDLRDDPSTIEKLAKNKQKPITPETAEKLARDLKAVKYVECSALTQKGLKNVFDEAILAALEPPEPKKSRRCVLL

Question: `CC1(C)Cc2c(sc(NC(=S)NC(=O)c3ccccc3)c2C(=O)O)CO1` [2-(benzoylcarbamothioylamino)-5,5-dimethyl-4,7-dihydrothieno[2,3-c]pyran-3-carboxylic acid] was tested. Which EC50 did it give?
Answer: 92 nM
